From ChEMBL document CHEMBL4706540, “Targeting estrogen receptor α for degradation with PROTACs: A promising approach to overcome endocrine resistance” (Eur J Med Chem, 2020)

Assays:
[1] = target: T1, von Hippel-Lindau disease tumor suppressor/Estrogen receptor (Homo sapiens, UniProt P03372+P40337); experiment: Induction of VHL-mediated ERalpha degradation in human MCF7 cells by western blot analysis; format: cell-based
Target sequence in this assay (P40337 whole entry, one chain of several): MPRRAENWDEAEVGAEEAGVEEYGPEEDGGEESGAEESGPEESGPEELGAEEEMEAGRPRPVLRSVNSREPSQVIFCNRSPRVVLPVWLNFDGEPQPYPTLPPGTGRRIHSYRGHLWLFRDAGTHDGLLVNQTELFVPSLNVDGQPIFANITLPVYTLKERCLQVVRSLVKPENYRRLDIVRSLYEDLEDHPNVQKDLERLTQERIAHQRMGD

[2] = target: T1, von Hippel-Lindau disease tumor suppressor/Estrogen receptor; experiment: Induction of VHL-mediated ERalpha degradation in human MCF7 cells assessed as maximum degradation by western blot analysis relative to control; format: cell-based
Target sequence in this assay (P40337 whole entry, looked up, one chain of several): as the sequence (P40337 whole entry, one chain of several) above

[3] = target: T1, von Hippel-Lindau disease tumor suppressor/Estrogen receptor; experiment: Induction of VHL-mediated ERalpha degradation in human T47D cells by western blot analysis; format: cell-based
Target sequence in this assay (P40337 whole entry, one chain of several): as above

[4] = target: T1, von Hippel-Lindau disease tumor suppressor/Estrogen receptor; experiment: Induction of VHL-mediated ERalpha degradation in human T47D cells assessed as maximum degradation by western blot analysis relative to control; format: cell-based
Target sequence in this assay (P40337 whole entry, looked up, one chain of several): as the sequence (P40337 whole entry, one chain of several) above

[5] = test system: MCF7; experiment: Antiproliferative activity against human MCF7 cells incubated for 6 days with replacement of medium every 2 to 3 days by MTT assay; format: functional, cell-based
[6] = test system: MCF7; experiment: Antiproliferative activity against human MCF7 cells incubated for 6 days with replacement of medium every 2 to 3 days by MTT assay relative to control; format: functional; settings: time 6 day
[7] = test system: T47D; experiment: Antiproliferative activity against human T47D cells incubated for 6 days with replacement of medium every 2 to 3 days by MTT assay; format: functional, cell-based
[8] = test system: T47D; experiment: Antiproliferative activity against human T47D cells incubated for 6 days with replacement of medium every 2 to 3 days by MTT assay relative to control; format: functional; settings: time 6 day
[9] = target: T2, Estrogen receptor (Homo sapiens, UniProt P03372); experiment: Induction of XIAP-mediated estrogen receptor alpha degradation in human MCF7 cells incubated for 4 hrs by western blot analysis; format: cell-based
T2 sequence (P03372 whole entry): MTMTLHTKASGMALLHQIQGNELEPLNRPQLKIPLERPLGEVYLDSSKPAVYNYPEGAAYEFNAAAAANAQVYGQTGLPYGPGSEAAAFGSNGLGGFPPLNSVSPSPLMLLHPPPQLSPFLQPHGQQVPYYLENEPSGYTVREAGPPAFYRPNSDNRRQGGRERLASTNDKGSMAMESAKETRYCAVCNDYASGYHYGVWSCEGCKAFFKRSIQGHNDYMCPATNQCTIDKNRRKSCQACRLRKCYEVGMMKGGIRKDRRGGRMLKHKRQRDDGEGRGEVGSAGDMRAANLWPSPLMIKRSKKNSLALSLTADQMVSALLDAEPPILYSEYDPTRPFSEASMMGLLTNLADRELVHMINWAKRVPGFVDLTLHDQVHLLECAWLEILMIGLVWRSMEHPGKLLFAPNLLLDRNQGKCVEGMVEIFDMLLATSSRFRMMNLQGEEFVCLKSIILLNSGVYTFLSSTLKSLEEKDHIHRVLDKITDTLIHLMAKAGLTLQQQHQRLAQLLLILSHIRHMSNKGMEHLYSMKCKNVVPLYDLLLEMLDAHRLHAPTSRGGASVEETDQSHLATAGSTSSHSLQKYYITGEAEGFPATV

[10] = test system: MCF7; experiment: Antiproliferative activity against human MCF7 cells incubated for 72 hrs by crystal violet staining based assay; format: functional, cell-based; settings: MCF7, 72 h
[11] = test system: T47D; experiment: Antiproliferative activity against human T47D cells incubated for 72 hrs by crystal violet staining based assay; format: functional, cell-based
[12] = test system: MCF7; experiment: Induction of IAP-mediated estrogen receptor alpha degradation in human MCF7 cells at <1 uM by western blot analysis relative to control; format: cell-based; settings: dose microM <1
[13] = test system: MCF7; experiment: Growth inhibition of human MCF7 cells harboring wild type estrogen receptor incubated for 5 days by PrestoBlue cell viability assay; format: functional, cell-based; settings: MCF7, 120 h
[14] = test system: MCF7; experiment: Growth inhibition of human MCF7 cells harboring ER Y537S mutant incubated for 5 days by PrestoBlue cell viability assay; format: functional, cell-based; settings: MCF7, 120 h
[15] = test system: MCF7; experiment: Growth inhibition of human MCF7 cells harboring ER D538G mutant incubated for 5 days by PrestoBlue cell viability assay; format: functional, cell-based; settings: MCF7, 120 h

Row | Structure (SMILES) | DC50 [1] | Imax [2] | IC50 [5] | IC50 [7] | DC50 [9] | Imax [6] | Imax [8] | other results
1 | CCC(=C(c1ccc(O)cc1)c1ccc(OCCN(C)C(=O)COCCOCCOCCOc2cccc(C(=O)c3csc([C@@H]4CCCN4C(=O)[C@@H](NC(=O)[C@H](C)NC)C4CCCCC4)n3)c2)cc1)c1ccccc1 |  |  |  |  | < 3 nM |  |  | IC50 [10]: 15.6 nM; IC50 [11]: 9.6 nM
2 | CN[C@@H](C)C(=O)N[C@H](C(=O)N1Cc2cc(OCCOCCOCCOCCOc3ccc(Oc4c(-c5ccc(O)cc5)sc5cc(O)ccc45)cc3)ccc2C[C@H]1C(=O)N[C@@H]1CCCc2ccccc21)C(C)(C)C |  |  |  |  |  |  |  | Activity [12]: > 50%
3 | CCN(CCCCCCCC(=O)N[C@H](C(=O)N1C[C@H](O)C[C@H]1C(=O)N[C@@H](C)c1ccc(-c2scnc2C)cc1)C(C)(C)C)CCOc1ccc(C(=O)c2c(-c3ccc(O)cc3)sc3cc(O)ccc23)cc1 |  |  |  |  |  |  |  | IC50 [13]: 0.8 nM; IC50 [14]: 10.5 nM; IC50 [15]: 6.1 nM
4 | CCC(=C(c1ccc(O)cc1)c1ccc(OCCN(C)C(=O)COCCOCCOCCOc2cccc(O[C@H]3C[C@@H](C(=O)N[C@@H]4CCCc5ccccc54)N(C(=O)[C@@H](NC(=O)[C@H](C)NC)C4CCCCC4)C3)c2)cc1)c1ccccc1 |  |  |  |  | < 3 nM |  |  | 

Continued, in another order:

Row | DC50 [1] | Imax [2] | IC50 [5] | IC50 [7] | DC50 [9] | Structure (SMILES) | Imax [6] | Imax [8] | other results
5 | 7.7 nM | 95% | 69.1 nM | 65.2 nM |  | Cc1ncsc1-c1ccc([C@H](C)NC(=O)[C@@H]2C[C@@H](O)CN2C(=O)[C@@H](NC(=O)CCCCOc2ccc(/C=N/NC(=O)c3ccc(C(=O)c4c(-c5ccc(O)cc5)sc5cc(O)ccc45)cc3)cc2)C(C)(C)C)cc1 | 60% | 73% | DC50 [3]: 10.3 nM; Imax [4]: > 95%
6 | 1.13 nM | 98% | 13.2 nM | 17 nM |  | Cc1ncsc1-c1ccc([C@H](C)NC(=O)[C@@H]2C[C@@H](O)CN2C(=O)[C@@H](NC(=O)CCCCOc2ccc(CNNC(=O)c3ccc(C(=O)c4c(-c5ccc(O)cc5)sc5cc(O)ccc45)cc3)cc2)C(C)(C)C)cc1 | 69% | 78% | 
